Measured values published in US20240197733A1, “A GABA RECEPTOR MODULATOR FOR USE IN THE TREATMENT OF PAIN” (SANIONA A/S, priority 2021, published 2024).

Tests used:
Type in all cases: in vivo, Sprague-Dawley rats
[1] = system: electrocutaneous stimulation-induced facial pain rodent model; experiment: ES-induced facial pain model, acute treatment, overall conclusion (mechanical and thermal tests); conditions: 1, 3 and 10 mg/kg po
Excerpt: The electrocutaneous stimulation-induced facial pain rodent model is a reproducible orofacial pain model in which depilated cheek area of rats are repeatedly subjected to electrical stimulation. Repeated electrical stimulation at low intensities produces craniofacial pain that mimics the behavioral characteristics of TN such as development of mechanical and thermal allodynia at cheeks despite no visible edema, swelling or excessive injury and tissue damage. Male wild type, Sprague-Dawley rats (Charles River Laboratories) born in-house at […] Research Laboratory between May 24, 2020 to May 28, 2020. […] Compound 1, vehicle and Carbamazepine was administered perorally in doses of 1, 3, and 10 mg/kg (Compound 1) or 30 mg/kg (carbamazepine) and drug effects on pain thresholds were evaluated 2- and 4 hours after drug administration by assessment of mechanical- (von Frey) and thermal hypersensitivity (heat- and cold stimulation respectively). Decrease in ES-induced pain threshold was evaluated 22 hours following electrical stimulation of the depilated left cheek area (between the eye and ear ridge, this is a receptive field of trigeminal nerve) of each rat and was manifested as facial withdrawal following application of Von Frey filaments for mechanical allodynia and a heat lamp and acetone test for thermal hyperalgesia and allodynia respectively. […]

[2] = system: electrocutaneous stimulation-induced facial pain rodent model; experiment: ES-induced facial pain model, prophylactic treatment, overall conclusion (mechanical and thermal tests); conditions: po
Experimental: Unless stated otherwise, the same materials, methods, and provisions of Example 1 were applied to Example 2. The experimenter assessing the behavioral responses to drug administration is blinded to the drug treatment to the animals. Each treatment group is coded according the scheme below: • A. Vehicle (5% DMSO+30% HPBCD): 10 ml/kg • B. Compound 1: 0.3 mg/kg • C. Compound 1: 1 mg/kg • D. Compound 1: 3 mg/kg • F. Compound 1: 3 mg/kg—acute Second baseline measurement was carried out similarly to day 1, For each animal, the average of the two baseline nociceptive measurements was calculated within each pain modality (mechanical, heat- and cold pain), and used as baseline (“Baseline” point on figures). Then all rats in the above respective group (A-D) are given treated as mentioned. Group F received vehicle treatment. Treatment is continued once daily to each group same as Day 2 All rats were treated with respective treatment as per day 3-7. After 1 hr of treatment, each rat was subjected to 1 hr of electrocutaneous stimulation at depilated cheek (0.4 mA intensity, 10 ms duration, 1 s inter-pulse interval). […] Treatment effects on pain thresholds were evaluated 2- and 4 hours after administration by assessing mechanical- (Von Frey) and thermal (heat and cold) withdrawal threshold.

[3] = system: electrocutaneous stimulation-induced facial pain rodent model; experiment: ES-induced facial pain model, hot thermal hyperalgesia (lamp test), prophylactic and acute treatment; conditions: for development of heat hyperalgesia vs vehicle: day 9 at 0 time
Experimental: Immediately following assessment of mechanical pain threshold, thermal (hot- and cold induced) pain was determined. Hot thermal pain thresholds were assessed by measuring each rat's facial withdrawal latency (seconds) in response to thermal stimulation on the depilated and stimulated rat cheek by using Yeomans' Thermal Testing Lamp with the following settings: Lamp fixed ˜7 cm above depilated left cheek of rat, Voltage regulator was set to 45V for C fiber testing. Cutoff was set at 20 seconds to avoid tissue damage. Unless stated otherwise, the same materials, methods, and provisions of Example 1 were applied to Example 2. The required quantity of the compound is weighed and dissolved in 100% DMSO in a volume amounting to 5% of the total volume while placed on a stirrer. The weight of the compounds refers to the free base weights. Once the solution becomes clear/transparent, the remaining volume of the vehicle is added (30% HPBCD prepared in MQ water) to final concentrations of 0.03, 0.1, and 0.3 mg/ml for Compound 1. The solutions are kept on a stirrer before- and during administration of the compounds to the animals. The experimenter assessing the behavioral responses to drug administration is blinded to the drug treatment to the animals. Each treatment group is coded according the scheme below: • A. Vehicle (5% DMSO+30% HPBCD): 10 ml/kg • B. Compound 1: 0.3 mg/kg • C. Compound 1: 1 mg/kg • D. Compound 1: 3 mg/kg • F. Compound 1: 3 mg/kg—acute Second baseline measurement was carried out similarly to day 1, For each animal, the average of the two baseline nociceptive measurements was calculated within each pain modality (mechanical, heat- and cold pain), and used as baseline (“Baseline” point on figures). Then all rats in the above respective group (A-D) are given treated as mentioned. Group F received vehicle treatment. Treatment is continued once daily to each group same as Day 2 All rats were treated with respective treatment as per day 3-7. After 1 hr of treatment, each rat was subjected to 1 hr of electrocutaneous stimulation at depilated cheek (0.4 mA intensity, 10 ms duration, 1 s inter-pulse interval). Similar to day 1- and 2, all rats were acclimatized to test equipment followed by measurements of ES-induced facial mechanical- heat- and cold allodynia (“0” time point on figures). After measurement of hypersensitivity threshold, rats from group A-D received the vehicle and three doses of Compound 1 as mentioned above while group F received single acute dose of 3 mg/kg of Compound 1. Treatment effects on pain thresholds were evaluated 2- and 4 hours after administration by assessing mechanical- (Von Frey) and thermal (heat and cold) withdrawal threshold.

## COc1ncc(-c2cccc(-n3cnc4cc(C(C)(C)O)cnc43)c2)c(OC)n1 [Compound 1, 2-(3-(3-(2,4-dimethoxypyrimidin-5-yl)phenyl)-3H-imidazo[4,5-b]pyridin-6-yl)propan-2-ol]
[1]
  analgesic effects (overall): significant analgesic effects in a dose dependent manner
[2]; once daily dose of 3 mg/kg, prophylactic
  analgesic effect compared with 10 mg/kg acute dose of Compound 1 or 30 mg/kg of Carbamazepine: same analgesic effect
[2]; prophylactic treatment for 7 days, once daily dose
  development of ES-induced sensitization (hypersensitivity to mechanical and thermal stimulus): significantly reduced the development of ES-induced sensitization of the trigeminal sensory system
[3]; acute 3 mg/kg po on day 9, p<0.0001 post 2 and 4 hrs
  effect on established heat hyperalgesia vs vehicle: reversed the heat hyperalgesia
[3]; prophylactic 0.3 mg/kg po plus additional dose on day 9, p<0.05 post 2 hrs, p<0.001 post 4 hrs
  effect on established heat hyperalgesia vs vehicle: further enhanced the analgesic effect
[3]; prophylactic 1 mg/kg po once daily for 7 days, p<0.05 vs vehicle
  development of heat hyperalgesia vs vehicle: significantly reduced the development of heat hyperalgesia
[3]; prophylactic 1 mg/kg po plus additional dose on day 9, p<0.0001 post 2 hrs and post 4 hrs
  effect on established heat hyperalgesia vs vehicle: further enhanced the analgesic effect
[3]; prophylactic 3 mg/kg po once daily for 7 days, p<0.0001 vs vehicle
  development of heat hyperalgesia vs vehicle: significantly reduced the development of heat hyperalgesia
[3]; prophylactic 3 mg/kg po plus additional dose on day 9, p<0.0001 post 2 hrs and post 4 hrs
  effect on established heat hyperalgesia vs vehicle: further enhanced the analgesic effect
